{"source": "patent US11969401B2", "about": "“Compositions and methods for treating or limiting development of age-related macular degeneration” (Arizona Board of Regents on Behalf of The University of …, priority 2019, dated 2024)"}
{"system": "retinal pigment epithelium (RPE) cells", "experiment": "Circadian patterns of VEGF secretion by perfused RPE monolayers (ELISA, Cosinor fit)", "type": "cell-based", "details": "alternating 12-hour intervals, conclusion in words", "protocol": "The purpose of this study was to test whether retinal pigment epithelium (RPE) cells express vascular endothelial growth factor (VEGF) in a circadian manner. We tested the hypothesis that 12 hour alternating intervals of dopamine then melatonin combined with L-DOPA would induce RPE cells into a circadian rhythm that controlled VEGF expression. Methods: RPE monolayers were produced on snap-well filters, which were maintained in static culture conditions for at least six months, during which time they became pigmented and well differentiated. […] A baseline of VEGF secretion was established over a 3-week period. After the baseline was established, the cells were perfused with media containing 1 ? M dopamine for 12 hours, then media containing 1 ? M melatonin plus 1 ? M L-DOPA for the next 12 hours. […] Initiation of the next drug dilutes the previous over 12 hours while simultaneously ramping up the new drug. Cells were maintained in this circadian rhythm for at least three cycles. […] The amount of VEGF was plotted against the time of perfusion and fitted using the Cosinor method to find a length of circadian cycle and corresponding p-value for statistical analysis."}
{"compound": "N[C@@H](Cc1ccc(O)c(O)c1)C(=O)O", "note": "[L-DOPA, 2-amino-3-(3,4-dihydroxyphenyl)propanoic acid]", "effect on RPE VEGF secretion": "antagonize dopamine effects"}
{"compound": "NCCc1ccc(O)c(O)c1", "note": "[dopamine]", "effect on RPE VEGF secretion": "increase RPE VEGF secretion"}
{"compound": "COc1ccc2[nH]cc(CCNC(C)=O)c2c1", "note": "[melatonin, Melatonin]", "effect on RPE VEGF secretion": "antagonize dopamine effects"}
